Test results: patent publication EP0620225B1, “Cephalosporin derivatives” (Basilea Pharmaceutica AG, priority 1993, dated 1994)
Values after ≈ are worked out from the molar mass of the structure shown.

How the values were obtained:
S.viridans group = test: In vitro activity against selected species (MIC50, MIC90, range); assay type: cell-based
E.faecium = test: In vitro activity against selected species (MIC50, range); assay type: cell-based; details: Enterococcus faecium, medium MHA
Protocol: (§1) In vitro activity was determined by minimum inhibitory concentration in a microorganism spectum by the agar dilution method in Mueller Hinton agar.

C.freundii 902 = test: Antibacterial spectrum (MIC), agar dilution; assay type: cell-based; details: Citrobacter freundii, read-out: MIC
Protocol: as §1

E.faecalis 6 = test: Antibacterial spectrum (MIC), agar dilution; assay type: cell-based; details: Enterococcus faecalis, read-out: MIC
Protocol: as §1

E.cloacae 908R = test: Antibacterial spectrum (MIC), agar dilution; assay type: cell-based; details: Enterobacter cloacae, read-out: MIC
Protocol: as §1

S.agalactiae QK44 = test: Antibacterial spectrum (MIC), agar dilution; assay type: cell-based; details: Streptococcus agalactiae, read-out: MIC
Protocol: as §1

H.influenzae 1 = test: Antibacterial spectrum (MIC), agar dilution; assay type: cell-based; details: Haemophilus influenzae, read-out: MIC
Protocol: as §1

S.viridans group 016 = test: Antibacterial spectrum (MIC), agar dilution; assay type: cell-based; details: Streptococcus viridans, read-out: MIC
Protocol: as §1

S.marcescens 69438 = test: Antibacterial spectrum (MIC), agar dilution; assay type: cell-based; details: Serratia marcescens, read-out: MIC
Protocol: as §1

E.cloacae 908SSi = test: Antibacterial spectrum (MIC), agar dilution; assay type: cell-based; details: Enterobacter cloacae, read-out: MIC
Protocol: as §1

S.pneumoniae Q19 = test: Antibacterial spectrum (MIC), agar dilution; assay type: cell-based; details: Streptococcus pneumoniae, read-out: MIC
Protocol: as §1

P.vulgaris 1028 = test: Antibacterial spectrum (MIC), agar dilution; assay type: cell-based; details: Proteus vulgaris, read-out: MIC
Protocol: as §1

E.coli 25922 = test: Antibacterial spectrum (MIC), agar dilution; assay type: cell-based; details: Escherichia coli, read-out: MIC
Protocol: as §1

M.catarrhalis RA21 = test: Antibacterial spectrum (MIC), agar dilution; assay type: cell-based; details: Moraxella catarrhalis, read-out: MIC
Protocol: as §1

L.monocytogenes BK23 = test: Antibacterial spectrum (MIC), agar dilution; assay type: cell-based; details: Listeria monocytogenes, read-out: MIC
Protocol: as §1

S.pyogenes B15 = test: Antibacterial spectrum (MIC), agar dilution; assay type: cell-based; details: Streptococcus pyogenes, read-out: MIC
Protocol: as §1

P.aeruginosa 27853 = test: Antibacterial spectrum (MIC), agar dilution; assay type: cell-based; details: Pseudomonas aeruginosa, read-out: MIC
Protocol: as §1

P.mirabilis 2117 = test: Antibacterial spectrum (MIC), agar dilution; assay type: cell-based; details: Proteus mirabilis, read-out: MIC
Protocol: as §1

S.aureus 734 MRSA = test: Antibacterial spectrum (MIC), agar dilution; assay type: cell-based; details: Staphylococcus aureus, read-out: MIC
Protocol: as §1

M.morganii 6H-137 = test: Antibacterial spectrum (MIC), agar dilution; assay type: cell-based; details: Morganella morganii, 6H137, read-out: MIC
Protocol: as §1

N.meningitidis 69480 = test: Antibacterial spectrum (MIC), agar dilution; assay type: cell-based; details: Neisseria meningitidis, read-out: MIC
Protocol: as §1

S.aureus 6538 = test: Antibacterial spectrum (MIC), agar dilution; assay type: cell-based; details: Staphylococcus aureus, read-out: MIC
Protocol: as §1

P.asaccharolyticus 29743 = test: Antibacterial spectrum (MIC), agar dilution; assay type: cell-based; details: Peptoniphilus asaccharolyticus, read-out: MIC
Protocol: as §1

B.fragilis ATCC25285 = test: Antibacterial spectrum (MIC), agar dilution; assay type: cell-based; details: Bacteroides fragilis, read-out: MIC
Protocol: as §1

X.maltophilia 1AC739 = test: Antibacterial spectrum (MIC), agar dilution; assay type: cell-based; details: Stenotrophomonas maltophilia, read-out: MIC
Protocol: as §1

K.pneumoniae 418 = test: Antibacterial spectrum (MIC), agar dilution; assay type: cell-based; details: Klebsiella pneumoniae, read-out: MIC
Protocol: as §1

C.difficile ZH1 = test: Antibacterial spectrum (MIC), agar dilution; assay type: cell-based; details: Clostridioides difficile, read-out: MIC
Protocol: as §1

Acinetobacter sp.51-156 = test: Antibacterial spectrum (MIC), agar dilution; assay type: cell-based; details: SP.51156, read-out: MIC
Protocol: as §1

C.freundii 43 = test: Antibacterial spectrum (MIC), agar dilution; assay type: cell-based; details: Citrobacter freundii, read-out: MIC
Protocol: as §1

S.aureus MSSA = test: In vitro activity against selected species (MIC50, MIC90, range); assay type: cell-based; details: Staphylococcus aureus, medium MHB (Mueller Hinton Broth); for MIC: MIC range
M.catarrhalis = test: as above; assay type: cell-based; details: Moraxella catarrhalis, medium IsoB
S.aureus Smith = test: Efficacy against systemic infections (septicemia) in mice; assay type: in vivo; details: Staphylococcus aureus, 96 h, sc 1 and 3 h after challenge, survival day 4
Protocol: (§2) Septicemia was induced in outbred Swiss albino mice (Jbm MoRo [specific pathogen free]; weight 16 to 20 g, Biomedical Research Laboratories, Füllinsdorf, Switzerland). Mice were infected by intraperitoneal injection of diluted overnight cultures of the test organisms. Bacterial challenge doses were 4-10 times the number of organisms required to kill 50% of untreated animals within 48 h. The test compounds were administered p.o. or s.c. 1 and 3 h after the bacterial challenge. To treat the infection with Pseudomonas aeruginosa BA an additional dose was given 5 h after challenge. Control and treatment groups at each dose were composed of five mice each. The 50% effective dose (ED50, in milligrams per kilogram) was calculated by probit analysis as described by Finney (Finney, D.J. 1978, Statistical method in biological assay, 3rd ed. Charles Griffin & Co., Ltd., London), from the survival rates on day 4 after infection.

Escherichia coli 25922 = test: as above; assay type: in vivo; details: 96 h, survival day 4
Protocol: as §2

E.faecalis [1] = test: In vitro activity against selected species (MIC50, MIC90, range); assay type: cell-based; details: Enterococcus faecalis, medium IsoB
S.aureus MRSA = test: as above; assay type: cell-based; details: Staphylococcus aureus, medium MHA (Mueller Hinton Agar) +NaCl
Protocol: as §1

E.faecalis [2] = test: as above; assay type: cell-based; details: Enterococcus faecalis, medium MHA
Protocol: as §1

S.pneumoniae PEN-R = test: as above; assay type: cell-based; details: Streptococcus pneumoniae; for MIC: MIC range
[3] = Escherichia coli 25922, po (orally) 1 and 3 h after challenge
[4] = Escherichia coli, E.coli 25922, sc 1 and 3 h after challenge
[5] = medium IsoB (Isosensitest Broth)

C=CC1=C(C(=O)O)N2C(=O)[C@@H](NC(=O)/C(=N\O)c3csc(N)n3)[C@H]2SC1 [Cefdinir, reference compound]
Range (S.viridans group; MIC range, medium IsoB): <0.12 to 128 µg/mL | MIC50 (S.viridans group; Streptococcus viridans): 8 mg/L (≈ 20.2 µM) | MIC90 (S.viridans group; Streptococcus viridans): 16 mg/L (≈ 40.5 µM) | MIC50 (E.faecium): 16 mg/L (≈ 40.5 µM) | MIC (C.freundii 902): 16 mg/L (≈ 40.5 µM) | MIC (E.faecalis 6): 8 mg/L (≈ 20.2 µM) | MIC (E.cloacae 908R): > 32 mg/L | MIC (S.agalactiae QK44): 0.25 mg/L (≈ 0.632 µM) | MIC (H.influenzae 1): 0.5 mg/L (≈ 1.26 µM) | MIC (S.viridans group 016): 2 mg/L (≈ 5.06 µM) | MIC (S.marcescens 69438): 16 mg/L (≈ 40.5 µM) | MIC (E.cloacae 908SSi): 32 mg/L (≈ 80.9 µM) | MIC (S.pneumoniae Q19): 0.25 mg/L (≈ 0.632 µM) | MIC (P.vulgaris 1028): 1 mg/L (≈ 2.53 µM) | MIC (E.coli 25922): 0.25 mg/L (≈ 0.632 µM) | MIC (M.catarrhalis RA21): 1 mg/L (≈ 2.53 µM) | MIC (L.monocytogenes BK23): 16 mg/L (≈ 40.5 µM) | MIC (S.pyogenes B15): ≤ 0.06 mg/L | MIC (P.aeruginosa 27853): > 32 mg/L | MIC (P.mirabilis 2117): 0.12 mg/L (≈ 0.303 µM) | MIC (S.aureus 734 MRSA): > 32 mg/L | MIC (M.morganii 6H-137): 8 mg/L (≈ 20.2 µM) | MIC (N.meningitidis 69480): ≤ 0.06 mg/L | MIC (S.aureus 6538): 0.5 mg/L (≈ 1.26 µM) | MIC (P.asaccharolyticus 29743): ≤ 0.12 mg/L | MIC (B.fragilis ATCC25285): 32 mg/L (≈ 80.9 µM) | MIC (X.maltophilia 1AC739): > 32 mg/L | MIC (K.pneumoniae 418): 0.12 mg/L (≈ 0.303 µM) | MIC (C.difficile ZH1): 32 mg/L (≈ 80.9 µM) | MIC (Acinetobacter sp.51-156): > 32 mg/L | MIC (C.freundii 43): > 32 mg/L | MIC (S.aureus MSSA): 0.5 to 4 mg/L (≈ 1.26 to 10.1 µM) | MIC50 (S.aureus MSSA): 1 mg/L (≈ 2.53 µM) | MIC90 (S.aureus MSSA): 2 mg/L (≈ 5.06 µM) | MIC (M.catarrhalis; MIC range): 0.25 to 0.5 mg/L (≈ 0.632 to 1.26 µM) | MIC50 (M.catarrhalis): 0.25 mg/L (≈ 0.632 µM) | MIC90 (M.catarrhalis): 0.5 mg/L (≈ 1.26 µM) | ED50 (S.aureus Smith): < 1 mg/kg | ED50 (Escherichia coli 25922; [3]): 1.8 mg/kg | ED50 (Escherichia coli 25922; [4]): < 1 mg/kg | MIC (E.faecalis [1]; MIC range): 1 to 64 mg/L (≈ 2.53 to 162 µM) | MIC50 (E.faecalis [1]): 8 mg/L (≈ 20.2 µM) | MIC90 (E.faecalis [1]): 32 mg/L (≈ 80.9 µM) | MIC50 (S.aureus MRSA): > 32 mg/L | MIC90 (S.aureus MRSA): > 32 mg/L | MIC (E.faecalis [2]; MIC range): 4 to 32 mg/L (≈ 10.1 to 80.9 µM) | MIC50 (E.faecalis [2]): 8 mg/L (≈ 20.2 µM) | MIC90 (E.faecalis [2]): 16 mg/L (≈ 40.5 µM) | MIC (S.pneumoniae PEN-R; [5]): 0.1 to 8 mg/L (≈ 0.253 to 20.2 µM) | MIC (S.pneumoniae PEN-R; medium IsoB + 20% serum): 0.1 to 8 mg/L | MIC50 (S.pneumoniae PEN-R; [5]): 2 mg/L (≈ 5.06 µM) | MIC90 (S.pneumoniae PEN-R; [5]): 4 mg/L (≈ 10.1 µM) | MIC50 (S.pneumoniae PEN-R; medium IsoB + 20% serum): 4 mg/L

CO/N=C(\C(=O)N[C@@H]1C(=O)N2C(C(=O)O)=C(CSc3nc(=O)c(=O)[nH]n3C)CS[C@H]12)c1csc(N)n1 [Ceftriaxone, [6R-[6 α,7 β(Z)]]-7-[[(2-Amino-4-thiazolyl)(methoxyimino)acetyl]amino]-8-oxo-3-[[(1,2,5,6-tetrahydro-2-methyl-5,6-dioxo-1,2,4-triazin-3-yl)thio]methyl]-5-thia-1-azabicyclo[4.2.0]oct-2-ene-2-carboxylic acid, reference compound]
MIC (E.faecium; MIC range): > 32 mg/L | MIC50 (E.faecium): > 32 mg/L | MIC (C.freundii 902): 0.25 mg/L (≈ 0.451 µM) | MIC (E.faecalis 6): > 32 mg/L | MIC (E.cloacae 908R): > 32 mg/L | MIC (S.agalactiae QK44): ≤ 0.06 mg/L | MIC (H.influenzae 1): < 0.06 mg/L | MIC (S.viridans group 016): 0.25 mg/L (≈ 0.451 µM) | MIC (S.marcescens 69438): 0.25 mg/L (≈ 0.451 µM) | MIC (E.cloacae 908SSi): 0.25 mg/L (≈ 0.451 µM) | MIC (S.pneumoniae Q19): ≤ 0.06 mg/L | MIC (P.vulgaris 1028): 0.12 mg/L (≈ 0.216 µM) | MIC (E.coli 25922): ≤ 0.06 mg/L | MIC (M.catarrhalis RA21): 1 mg/L (≈ 1.8 µM) | MIC (L.monocytogenes BK23): > 16 mg/L | MIC (S.pyogenes B15): ≤ 0.06 mg/L | MIC (P.aeruginosa 27853): 16 mg/L (≈ 28.9 µM) | MIC (P.mirabilis 2117): ≤ 0.06 mg/L | MIC (S.aureus 734 MRSA): > 32 mg/L | MIC (M.morganii 6H-137): ≤ 0.06 mg/L | MIC (N.meningitidis 69480): < 0.01 mg/L | MIC (S.aureus 6538): 4 mg/L (≈ 7.21 µM) | MIC (P.asaccharolyticus 29743): 0.25 mg/L (≈ 0.451 µM) | MIC (B.fragilis ATCC25285): 16 mg/L (≈ 28.9 µM) | MIC (X.maltophilia 1AC739): > 32 mg/L | MIC (K.pneumoniae 418): ≤ 0.06 mg/L | MIC (C.difficile ZH1): > 32 mg/L | MIC (Acinetobacter sp.51-156): 32 mg/L (≈ 57.7 µM) | MIC (C.freundii 43): 32 mg/L (≈ 57.7 µM) | MIC (S.aureus MSSA): 2 to 16 mg/L (≈ 3.61 to 28.9 µM) | MIC50 (S.aureus MSSA): 4 mg/L (≈ 7.21 µM) | MIC90 (S.aureus MSSA): 16 mg/L (≈ 28.9 µM) | ED50 (S.aureus Smith): < 2 mg/kg | ED50 (Escherichia coli 25922; [3]): 0.9 mg/kg | ED50 (Escherichia coli 25922; [4]): ≤ 0.01 mg/kg | MIC (S.aureus MRSA; MIC range): > 32 mg/L | MIC50 (S.aureus MRSA): > 32 mg/L | MIC90 (S.aureus MRSA): > 32 mg/L | MIC50 (E.faecalis [2]): > 32 mg/L | MIC90 (E.faecalis [2]): > 32 mg/L | MIC (S.pneumoniae PEN-R; [5]): 0.1 to 2 mg/L (≈ 0.18 to 3.61 µM) | MIC (S.pneumoniae PEN-R; medium IsoB + 20% serum): 1 to 8 mg/L | MIC50 (S.pneumoniae PEN-R; [5]): 0.5 mg/L (≈ 0.902 µM) | MIC90 (S.pneumoniae PEN-R; [5]): 1 mg/L (≈ 1.8 µM) | MIC50 (S.pneumoniae PEN-R; medium IsoB + 20% serum): 4 mg/L
